Values joined by “and” are separate entries in the source; they are usually repeats but may differ in a detail not shown here. Equal entries are not always repeated. “Also recorded” adds a separate entry of the source.
Columns and labels:
[1] = safety and adverse effects in the 12-week trial in youth with autistic disorder; type: in vivo, human; settings: nine youth with autistic disorder receiving acamprosate
Method: A 12-week single-blind, placebo-controlled trial of the effect of acamprosate in the treatment of 12 youths with autistic disorder aged 5 to 17 years was carried out. In order to pilot test use of acamprosate in youth with autism targeting core social impairment, was conducted. All subjects and their family members were blinded to treatment status. All subjects participated in a 2 week placebo-lead-in phase prior to 10 weeks of treatment with acamprosate. For this project, enteric coated commercially available 333 mg acamprosate pills were over-encapsulated and identical matching placebo manufactured for the project. Placebo-responders, defined by a Clinical Global Impressions Improvement scale (CGI-I) score of 1 “very much improved” or 2 “much improved” (ratings anchored to core social deficits) at week 2 were asked to exit the study. During active treatment with acamprosate, dosing was increased in 333 mg increments per week over the first six weeks of active treatment to a maximum dose of 1,332 mg/day (weight<5 60 kg) or 1,998 mg/day (weight>60 kg). During the final four weeks of active drug treatment, subjects were maintained on a stable highest tolerated (optimal) dose. The primary outcome measure was the clinician-rated CGI-I anchored to symptoms of social impairment. […]

[2] = test system: glutamate or GABA receptors subtypes; settings: xenopus oocyte model, clinically relevant concentrations; cited from earlier work
sAPPα = experiment: plasma sAPPα by ELISA pre- and post-acamprosate; type: in vivo, human
Method: Test plasma samples are measured soon after collection. When necessary test samples of plasma were frozen but not subjected to repeated freeze/thaw cycles. The test samples were thawed just before use at a low temperature and mixed them completely. If necessary, the plasma samples can be diluted appropriately with the EIA buffer, and assay may be performed in duplicate measurements for the test samples and standards. Test samples in neutral pH range were used, and steps were taken to avoid the contamination with of organic solvents. Regarding the standard to quantify the sAPPα levels, a series of sAPPα standards in EIA buffer by serial dilutions, from 0.78 ng/mL to 50 ng/mL were prepared.
The ELISA plates were pre-coated with anti-human sAPPα(2B3) mouse IgG-monoclonal affinity purified (IBL). First, the wells for the reagent blank were determined, and 100 μL each of “EIA buffer” or 10 mM NaHCO3 (pH9.5) buffer was placed into each of the wells. Likewise, wells were assigned for test sample blanks, test samples and diluted standards. Next, 100 μL each of test sample blank, test sample and dilutions of standard was added to into the appropriate wells. The test sample included the plasma sample from each subject, which may vary from 5-25 μl, made up to 100 μL with the EIA buffer. The pre-coated plate was incubated overnight at 4° C. after covering it tightly with a plate lid. The plate was kept onto a rocker with gentle shaking Next day, each well of the pre-coated plate was vigorously washed with wash buffer containing 0.05% Tween 20 in phosphate buffer. This was done by filling each well with the wash buffer, leaving the pre-coated plate laid for 15-30 seconds and removing wash buffer completely from the plate by snapping. This procedure was repeated five times. After removing the remaining liquid from all wells completely by snapping the plate onto paper towel, 100 μL of labeled antibody solution was added into the wells of test samples, diluted standard and test sample blank. HRP-conjugated and labeled anti-Human APP (R101A4) mouse IgG from IBL was used. Each plate was incubated for 30 minutes at 4° C. after covering it with plate lid, and then washed the plate 5 times in the same manner as described before. To develop the color, 100 μL of the Chromogen (TMB solution) was added to into the wells, and the plate was incubated for 30 minutes at room temperature in the dark. When the liquid started turning blue (by addition of the Chromogen), 100 μL of the Stop solution (1N H2SO4) was added into the wells. The liquid was mixed by tapping the side of plate, and the liquid turned yellow by addition of the Stop solution. […] A plate reader was used and measurements were conducted measurement at 450 nm against a reagent blank. […]

sAPP = experiment: plasma sAPP total by ELISA pre- and post-acamprosate; type: in vivo, human; settings: individual patients 1-6, titled as diagnosed with FXS; after treatment

Compound: CC(=O)NCCCS(=O)(=O)O.[Ca] [acamprosate, Calcium Acetylhomotaurine]
- overall tolerability [1]: well tolerated with no adverse effects leading to drug discontinuation or laboratory/vital sign abnormalities noted; also recorded: well tolerated with no adverse effects leading to drug discontinuation and no vital sign or safety laboratory changes noted
- direct binding to glutamate or GABA receptors subtypes [2]: no direct binding
- fractional change in sAPPα-CP (sAPPα; individual patients 1-6, baseline to Week 12): −0.7108 and −0.3184 and 0 and −0.02825 and −0.5967 and −0.4596
- sAPPα-CP, Week 12 (sAPPα; individual patients 1-6, titled as diagnosed with FXS, after treatment): 2.486 ng/mL and 5.056 ng/mL and 2.764 ng/mL and 4.778 ng/mL and 7.417 ng/mL and 2.694 ng/mL
- mean sAPPα post-treatment (sAPPα; pooled 15 participants (9 FXS, 6 idiopathic ASD), pre-treatment 8.4±7.9 ng/mL, p=0.003): 5.5 ± 7.2 ng/mL
- mean sAPPα levels at endpoint (sAPPα; six subjects of the 12-week trial, baseline 7.8 ng/mL, p=0.03): 4.2 ng/mL
- sAPP (total)-CP, Week 12 (sAPP): 5.561 ng/mL and 25.16 ng/mL and 12.84 ng/mL and 8.077 ng/mL and 56.8 ng/mL and 7.547 ng/mL

Reference: US9770423B2, “Modulation sAPP, sAAPα and BDNF levels in individuals diagnosed with FXS and ASD” (Indiana University Research and Technology Corp., priority 2012, dated 2017)
